Data published in US9701680B2, “Pyrimidine and pyridine compounds and their usage” (HUTCHISON MEDIPHARMA LIMITED, priority 2013, dated 2017).

Columns and labels:
Recombinant human FGFR1 = Recombinant human FGFR1 (Homo sapiens, UniProt P11362); test: Transcreener Kinase Assay of FGFR1; assay type: biochemical; settings: read-out: FGFR1 (FP) IC50
Method: (§1) • 1. […] Prepare Solution • Test compounds were solved in DMSO and were diluted with assay buffer to 5 folds of final concentration keeping the DMSO concentration at 5%. Further dilution are needed to make final concentrations are at 1, 0.33, 0.11, 0.037, 0.012, 0.004, 0.0014, 0.0005 μM; (the final concentration of DMSO is 1%). • Enzyme/Substrate stock Preparation: Recombinant human FGFR1 and Poly E4Y are both diluted in assay buffer.
• 3. Enzymatic Reaction • In a 96-well plate, add 5 μL of diluted solution of test compound or control solution. (positive control: 5 μL of 5% DMSO; negative control: 5 μL of 500 mM EDTA) into desired wells respectively; • Add 10 μL of Enzyme/Substrate stock into each well; • Add 10 μL of ATP Diluents to initiate the enzyme reaction and vortex the plate immediately on a plate shaker; • For the wells to make standard curve, add 5 μL of 5% DMSO, 10 μL of assay buffer and 10 μL of ATP standard curve stock. • Incubate the plate for 45 min at 28° C. on a plate shaker in a low speed. • 4. […] Excitation wavelength: 610 nm, Emission wavelength: 670 nm. • 5. Data Analysis
(§2) [formula] Note: • [ADP] in Compound well represents the ADP concentration in test compound well. • [ADP] in Positive control well represents the ADP concentration in 5% DMSO well • Conversion of mP value to ADP concentration is calculated based on the formula which determined by standard curve. And mP value is measured by following the instruction provided by BellBrook Labs. (www.bellbrooklabs.com). • 6. IC50: determined with add-in software for Microsoft Excel, XLfit™ (version 2.0) from ID Business Solutions (Guildford, UK).

Recombinant human FGFR2 = Recombinant human FGFR2 (Homo sapiens, UniProt P21802); test: Transcreener Kinase Assay of FGFR2; assay type: biochemical; settings: read-out: FGFR2 (FP) IC50
Method: Example 24: Transcreener Kinase Assay of FGFR2
as §1, with “FGFR2” for “FGFR1”, “buffer. The final concentration is 0.3 ng/μL for FGFR2 and 62.5 ng/μL for Poly E4Y. The mixture is being kept in ice before use; • Prepare ATP Diluents, 10 mM ATP is diluted in assay buffer, the final concentration is 25 μM; • Prepare ADP Diluents: diluted ADP (500 μM) in assay buffer, the final concentration is 25 μM; • Prepare ATP standard curve stock as following:” for “buffer.”
• 3. Enzymatic Reaction • In a 96-well plate, add 5 μL of deluted solution of test compound or control solution. (positive control: 5 μL of 5% DMSO; negative control: 5 μL of 500 mM EDTA) into desired wells respectively; • Add 10 μL of Enzyme/Substrate stock into each well; • Add 10 μL of ATP Diluents to initiate the enzyme reaction and vortex the plate immediately on a plate shaker; • For the wells to make standard curve, add 5 μL of 5% DMSO, 10 μL of assay buffer and 10 μL of ATP standard curve stock. • Incubate the plate for 45 min at 28° C. on a plate shaker in a low speed. • 4. Stoping Reaction and Detecting ADP • Detection Mix Preparation: The mixture is made by dilution with MilliQ water; as following: ADP Alexa633 tracer (1:100), ADP antibody (1:158), and stop & detect buffer (1:10); • Tracer Only control Preparation: The mixture is made by dilution with MilliQ water; as following: ADP Alexa633 tracer (1:100), and stop & detect buffer (1: 10) • No Tracer control Preparation: stop & detect buffer is diluted with MilliQ water; by 10 fold. • Add 25 μL of detection mix, Tracer Only control and No Tracer control into corresponding wells, respectively; • Incubate at 28° C. for 1 h, on a plate shaker in a low speed; • Measure florescence polarization (mP) on TECAN F500. Excitation wavelength: 610 nm, Emission wavelength: 670 nm. • 5. Data Analysis
as §2

FGFR3 kinase = FGFR3 kinase (Homo sapiens, UniProt P22607); test: Z-Lyte Kinase Assay of FGFR3; assay type: biochemical
Method: Example 25: Z-Lyte Kinase Assay of FGFR3
• 1. Materials and Reagents:
• 2. Reaction Steps: Plate Map
• 3. […] The final concentrations are 1, 0.33, 0.11, 0.037, 0.012, 0.004, 0.0014, 0.00046 μM, and the final concentration of DMSO is 2%. • 3) Kinase/Peptide Mixture (P/K solution): Prepare Kinase/Peptide Mixture by diluting the kinase to 0.7 μg/ml and the Z-LYTE™ Tyr 4 peptide to 4 μM in 1.33× Kinase Buffer. Mix gently by pipetting. • 4) Phospho-peptide Solution (PP solution): Add 0.4 μl of Z-LYTE™ Tyr 4 Phospho-peptide to 99.6 μl of 1.33× Kinase Buffer. • 5) ATP Solution: Prepare ATP Solution by diluting the 10 mM of ATP in 1.33× Kinase Buffer to 300 uM. • 6) Development Solution: Dilute Development Reagent B with Development Buffer as 1:128. • 4. […] Shake the plate for 30 Sec and centrifuge (1500 rpm, 1 min). • Seal the plate to protect from the light and incubate the plate for 1 hour at RT (25-30° C.). • 2) Development reaction • Add 5 μl of the Development solution to all wells. • Shake the plate for 30 Sec and centrifuge (1500 rpm, 1 min). • Seal the plate to protect from the light and incubate the plate for 1 hour at RT (25-30° C.). • 3) Stop and Read • Add 5 μl of the Stop reagent to all wells. • Shake the plate for 30 Sec and centrifuge (1500 rpm, 1 min). • Measure the value of Coumarin (Ex400 nm, Em445 nm) and fluorescein (Ex400 nm, Em520 nm), respectively. • 5. Data Analysis Emission Ratio(ER)=Coumarin Emission (445 nm)/Fluorescein Emission (520 nm) % Phosphorylation=1−[ER×C3520nm-C3445nm]/[(C1445nm-C3445nm)+ER×(C3520nm−C1520nm)] Inhibition rate (IR)=1−% Photest Cpd/% PhoC2 • 6. IC50 Value: determined with add-in software for Microsoft Excel, XLfit™ (version 2.0) from ID Business Solutions (Guildford, UK)

KG-1 = test: Cellular Proliferation Assay (Cell Counting Kit-8), KG-1; assay type: cell-based; settings: Homo sapiens; KG-1 cells, 72 hours; read-out: KG1 IC50
Method: (§3) Example 26: Cellular Proliferation Assay
(§4) • 1. Cell Line • KG-1 (ATCC Accession No. CCL-246), • SNU-16 (ATCC Accession No. CRL-5974), • RT-112 (ECACC Accession No. 85061106) • 2. Assay Protocol • FGFR related cancer cell proliferation is measured in 96-well plates using Cell Counting Kit-8 (Dojindo CK04-13). • Seed 30000 cells/well of KG1, 5000 cells/well of SNU16, and 1000 cells/well of RT112 in a volume of 100 μL/well in growth media. • After 24 hours, dilute the test compound to 10, 3.3, 1.1, 0.37, 0.12, 0.04, 0.013, 0.004 μM, keeping the DMSO concentration at 5%. • Add 10 μL of 8-point compound series to the wells of culturing cells. • Incubate at 37° C. and 5% CO2 for 72 hours • Add 10 μL/well of CCkit8 and incubate at 37° C. and 5% CO2 for an hour • Detect the optical density of each well at 450 nm on Labsystems Multiskan K3. • 3. Data Analysis
(§5) [formula] Note: • ODcompound well represents the optical density of cells treated with compound. • ODcell well represents the optical density of cells without compounds treatment.(only 0.5% DMSO) • ODcontrol well represents the optical density of culture media background • IC50: determined with add-in software for Microsoft Excel, XLfit™ (version 2.0) from ID Business Solutions (Guildford, UK).

SNU-16 = test: Cellular Proliferation Assay (Cell Counting Kit-8), SNU-16; assay type: cell-based; settings: Homo sapiens; SNU-16 cells, 72 hours
Method: as §3, §4, §5

RT-112 = test: Cellular Proliferation Assay (Cell Counting Kit-8), RT-112; assay type: cell-based; settings: Homo sapiens; RT-112 cells, 72 hours
Method: as §3, §4, §5

Chain of Recombinant human FGFR1 (P11362 22-822): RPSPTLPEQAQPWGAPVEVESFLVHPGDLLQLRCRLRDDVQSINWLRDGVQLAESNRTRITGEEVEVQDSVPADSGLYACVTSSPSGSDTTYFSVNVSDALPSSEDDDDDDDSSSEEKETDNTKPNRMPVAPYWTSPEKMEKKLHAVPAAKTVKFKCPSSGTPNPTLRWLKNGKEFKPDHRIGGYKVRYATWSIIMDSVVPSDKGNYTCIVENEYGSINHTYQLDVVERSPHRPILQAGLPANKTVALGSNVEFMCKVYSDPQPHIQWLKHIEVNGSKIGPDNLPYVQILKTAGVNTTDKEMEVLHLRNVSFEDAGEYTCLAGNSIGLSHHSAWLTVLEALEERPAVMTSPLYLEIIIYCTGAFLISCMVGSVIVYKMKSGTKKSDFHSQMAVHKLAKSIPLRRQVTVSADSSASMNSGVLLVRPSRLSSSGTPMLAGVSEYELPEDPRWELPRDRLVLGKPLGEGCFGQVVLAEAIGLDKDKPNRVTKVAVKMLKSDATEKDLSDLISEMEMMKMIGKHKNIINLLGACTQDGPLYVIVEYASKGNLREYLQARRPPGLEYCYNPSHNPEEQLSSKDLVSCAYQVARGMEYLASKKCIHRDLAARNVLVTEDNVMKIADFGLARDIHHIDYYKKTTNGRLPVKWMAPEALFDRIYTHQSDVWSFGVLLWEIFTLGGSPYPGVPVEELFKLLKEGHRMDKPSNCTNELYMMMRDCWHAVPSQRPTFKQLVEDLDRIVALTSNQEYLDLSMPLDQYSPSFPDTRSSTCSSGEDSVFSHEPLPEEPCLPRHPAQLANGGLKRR
Chain of FGFR3 kinase (P22607 23-806): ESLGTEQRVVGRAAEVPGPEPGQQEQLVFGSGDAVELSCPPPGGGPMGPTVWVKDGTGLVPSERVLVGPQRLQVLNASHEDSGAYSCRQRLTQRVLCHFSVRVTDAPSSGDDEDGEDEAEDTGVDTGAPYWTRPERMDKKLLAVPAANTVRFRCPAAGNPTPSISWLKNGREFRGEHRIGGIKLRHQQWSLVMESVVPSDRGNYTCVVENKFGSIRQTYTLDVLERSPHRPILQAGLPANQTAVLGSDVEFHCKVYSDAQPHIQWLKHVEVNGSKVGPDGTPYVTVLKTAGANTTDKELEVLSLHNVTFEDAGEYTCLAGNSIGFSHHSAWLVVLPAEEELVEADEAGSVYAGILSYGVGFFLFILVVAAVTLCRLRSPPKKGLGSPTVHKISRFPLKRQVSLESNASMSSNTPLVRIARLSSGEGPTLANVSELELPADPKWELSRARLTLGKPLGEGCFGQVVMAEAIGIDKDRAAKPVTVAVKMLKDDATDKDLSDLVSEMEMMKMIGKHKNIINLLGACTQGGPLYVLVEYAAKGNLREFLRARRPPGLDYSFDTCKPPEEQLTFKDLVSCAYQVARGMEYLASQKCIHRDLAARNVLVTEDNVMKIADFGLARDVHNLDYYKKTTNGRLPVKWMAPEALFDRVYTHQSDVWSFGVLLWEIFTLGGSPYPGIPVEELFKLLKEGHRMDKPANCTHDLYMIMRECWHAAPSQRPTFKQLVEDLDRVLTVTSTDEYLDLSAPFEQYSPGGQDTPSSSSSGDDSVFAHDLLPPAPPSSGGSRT
Chain of Recombinant human FGFR2 (P21802 22-821): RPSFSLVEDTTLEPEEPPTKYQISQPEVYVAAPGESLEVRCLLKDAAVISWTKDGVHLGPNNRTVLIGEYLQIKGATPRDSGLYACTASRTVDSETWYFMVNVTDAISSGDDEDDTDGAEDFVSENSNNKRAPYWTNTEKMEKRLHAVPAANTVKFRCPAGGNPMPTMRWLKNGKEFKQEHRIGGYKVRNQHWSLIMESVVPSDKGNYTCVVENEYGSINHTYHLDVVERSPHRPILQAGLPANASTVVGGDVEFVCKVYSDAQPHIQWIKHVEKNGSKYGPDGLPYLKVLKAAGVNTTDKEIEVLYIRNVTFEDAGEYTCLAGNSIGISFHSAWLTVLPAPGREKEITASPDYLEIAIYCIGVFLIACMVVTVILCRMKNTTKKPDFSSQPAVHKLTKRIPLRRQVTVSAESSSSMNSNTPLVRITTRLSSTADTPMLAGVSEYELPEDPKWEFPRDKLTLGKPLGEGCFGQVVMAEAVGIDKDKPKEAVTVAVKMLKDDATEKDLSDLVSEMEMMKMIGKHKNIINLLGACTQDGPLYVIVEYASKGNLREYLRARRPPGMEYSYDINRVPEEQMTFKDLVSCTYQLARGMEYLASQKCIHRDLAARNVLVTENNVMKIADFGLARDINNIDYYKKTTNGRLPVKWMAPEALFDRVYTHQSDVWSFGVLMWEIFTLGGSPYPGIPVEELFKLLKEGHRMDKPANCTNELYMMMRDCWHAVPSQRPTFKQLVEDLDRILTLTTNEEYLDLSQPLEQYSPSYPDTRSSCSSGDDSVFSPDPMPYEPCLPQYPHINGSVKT

| SMILES | IC50 (Recombinant human FGFR1) [nM] | IC50 (Recombinant human FGFR2) [nM] | IC50 (FGFR3 kinase) [nM] | IC50 (SNU-16) [nM] | IC50 (KG-1) [nM] | IC50 (RT-112) [nM] |
| --- | --- | --- | --- | --- | --- | --- |
| CNC(=O)c1cc(CCc2cnc(Nc3ccc(C(C)(C)C#N)nc3)nc2)c(F)c(OC)c1 [Compound 142] | 31 | 12 | 49 | 43 | 64 | 127 |
| C#Cc1cccc(Nc2ncc(OCc3cc(C(=O)NC)cc(OC)c3F)cn2)c1 [Compound 210] | 24 | 13 | 177 | 115 | 166 | 305 |
| C#Cc1ccc(Nc2ncc(OCc3cc(C(=O)NC)cc(OC)c3F)cn2)cn1 [Compound 211] | 40 | 16 | 42 | 155 | 103 | 78 |
| CNC(=O)c1cc(COc2cnc(Nc3cccc(OC)c3)nc2)c(F)c(OC)c1 [Compound 212] | 26 | 16 | 80 | 14 | 59 | 57 |
| CNC(=O)c1cc(COc2cnc(Nc3ccc4c(c3)NCC4)nc2)c(F)c(OC)c1 [Compound 214] | 67 | 25 | 19 | 27 | 6 | 90 |
| CNC(=O)c1cc(COc2cnc(Nc3ccc(C(C)=O)cc3)nc2)c(F)c(OC)c1 [Compound 215] | 44 | 20 | 65 | 72 | 26 | 127 |
| CNC(=O)c1cc(COc2cnc(Nc3ccc(OC)c(OC)c3)nc2)c(F)c(OC)c1 [Compound 218] | 25 | 12 | 21 | 7 | 27 | 44 |
| CNC(=O)c1cc(COc2cnc(Nc3ccc(-n4cncn4)cc3)nc2)c(F)c(OC)c1 [Compound 221] | 34 | 11 | 37 | 27 | 35 | 72 |

The next compounds have a lower IC50 (Recombinant human FGFR1) than those just listed; values first:

| IC50 (Recombinant human FGFR1) [nM] | IC50 (Recombinant human FGFR2) [nM] | IC50 (FGFR3 kinase) [nM] | IC50 (SNU-16) [nM] | SMILES | IC50 (KG-1) [nM] | IC50 (RT-112) [nM] |
| --- | --- | --- | --- | --- | --- | --- |
| 14 | 6 | 6 | 9 | CNC(=O)c1cc(CCc2cnc(Nc3ccc(N4C[C@@H](C)N[C@@H](C)C4)c(OC)c3)nc2)c(F)c(OC)c1 [Compound 156] | 218 | 13 |
| 14 | 7 | 6 | 7 | CNC(=O)c1cc(CCc2cnc(Nc3ccc(N4C[C@@H](C)N(C)[C@@H](C)C4)nc3)nc2)c(Cl)c(OC)c1 [Compound 158] | 16 | 29 |
| 23 | 11 | 10 | 6 | CCN1[C@H](C)CN(c2ccc(Nc3ncc(CCc4cc(C(=O)NC)cc(OC)c4Cl)cn3)cn2)C[C@@H]1C [Compound 159] | 26 | 21 |
| 12 | 8 | 11 | 16 | CNC(=O)c1cc(CCc2cnc(Nc3ccc(N4C[C@@H](C)N(C)[C@@H](C)C4)cc3)nc2)c(F)c(OC)c1 [Compound 171] | 8 | 43 |
| 7 | 6 | 6 | 4 | CNC(=O)c1cc(CCc2cnc(Nc3ccc(N4CCN(C)CC4)c(OC)c3)nc2)c(F)c(OC)c1 [Compound 172] | 13 | 12 |
| 12 | 8 | 6 | 12 | CNC(=O)c1cc(CCc2cnc(Nc3ccc(N4C[C@@H](C)N(C)[C@@H](C)C4)cc3)nc2)c(Cl)c(OC)c1 [Compound 175] | 11 | 30 |
| 6 | 5 | 6 | 2 | CNC(=O)c1cc(CCc2cnc(Nc3ccc(N4CCN(C)CC4)c(OC)c3)nc2)c(Cl)c(OC)c1 [Compound 177] | 11 | 11 |
| 10 | 7 | 11 | 20 | CNC(=O)c1cc(COc2cnc(Nc3cccc(NC(C)=O)c3)nc2)c(F)c(OC)c1 [Compound 216] | 24 | 132 |
